{"source": "patent US20240425441A9", "about": "“MODULATORS OF LIPOXYGENASE AND CYCLOOXYGENASE ENZYME ACTIVITY” (Université de Moncton, priority 2016, published 2024)", "assay_type_in_all_cases": "cell-based", "key": {"5-lipoxygenase [1]": {"target": "T1, 5-lipoxygenase (Homo sapiens (Human), UniProt P09917)", "T1 sequence (P09917 whole entry)": "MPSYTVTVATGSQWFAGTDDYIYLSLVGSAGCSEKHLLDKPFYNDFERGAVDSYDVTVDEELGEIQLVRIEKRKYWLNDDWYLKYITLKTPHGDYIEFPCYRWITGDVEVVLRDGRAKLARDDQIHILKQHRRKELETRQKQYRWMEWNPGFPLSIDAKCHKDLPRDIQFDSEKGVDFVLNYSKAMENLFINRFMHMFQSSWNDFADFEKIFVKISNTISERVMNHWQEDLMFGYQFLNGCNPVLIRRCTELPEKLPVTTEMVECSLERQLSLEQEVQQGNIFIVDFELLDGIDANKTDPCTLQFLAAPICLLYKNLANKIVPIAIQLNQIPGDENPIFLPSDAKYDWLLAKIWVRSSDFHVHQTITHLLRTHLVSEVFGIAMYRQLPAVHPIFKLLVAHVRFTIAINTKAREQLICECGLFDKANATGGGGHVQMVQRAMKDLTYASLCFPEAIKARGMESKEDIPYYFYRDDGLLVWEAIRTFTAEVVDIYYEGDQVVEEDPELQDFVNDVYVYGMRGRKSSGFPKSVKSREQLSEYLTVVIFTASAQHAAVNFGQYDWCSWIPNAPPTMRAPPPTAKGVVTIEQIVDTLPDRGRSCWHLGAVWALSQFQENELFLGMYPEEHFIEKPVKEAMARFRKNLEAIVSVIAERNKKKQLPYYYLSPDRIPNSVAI", "assay": "Stimulation of isolated PMN (neutrophils) for 5-LO products", "conditions": "ranges indicate confidence interval, read-out: PMN dose-response", "description": "Briefly, blood was centrifuged at 300×g for 5 min at room temperature, plasma was collected and erythrocytes were removed after dextran sedimentation.\nIsolated PMN (1×10^7 cells/mL) resuspended in Hank's balanced salt solution (HBSS, Lonza, Walkerville, MD) containing 1.6 mM CaCl2) were pre-incubated with test compounds for 5 min at 37° C. in the presence of 1 U/mL of adenosine deaminase. […] Reactions were stopped with the addition of 0.5 volume of cold MeOH:CH3CN (1:1) and 50 ng of PGB2 as internal standard, and samples were stored at −20° C. overnight for protein denaturation. […] Total 5-LO products quantified represents the sum of LTB4, its trans isomers, 20-COOH— and 20-OH-LTB4 and 5-hydroxyeicosatetraenoic acid."}, "5-lipoxygenase [2]": {"target": "T1, 5-lipoxygenase", "assay": "Stimulation of HEK293 cells stably transfected with 5-LO and FLAP; total 5-LO products by HPLC", "conditions": "HEK293 cells expressing 5-LO and FLAP; ranges indicate confidence interval; read-out: HEK Dose-response", "method": "HEK293 cells were detached by trypsinization and re-suspended in Hank's balanced salt solution containing 1.6 mM CaCl2). Cells (1×10^6 cells/mL) were preincubated at 37° C. with the test compounds or their diluent for 5 minutes and were then stimulated at 37° C. with 10 μM ionophore A23187 and 10 μM AA for 15 min. Stimulations were stopped by adding 0.5 volumes of a methanol:acetonitrile (1:1) solution containing 100 ng/mL each of PGB2 and 19-OH-PGB2 as internal standards, and samples were then kept at −20° C. overnight for protein denaturation. […] Total 5-LO products quantified represents the sum of LTB4, its trans isomers and 5-hydroxyeicosatetraenoic acid."}, "5-lipoxygenase [3]": {"target": "T1, 5-lipoxygenase", "assay": "Ex vivo whole blood stimulation with zymosan; total 5-LO products", "conditions": "zymosan-stimulated whole blood; read-out: Whole blood dose-response", "description": "Each compound or its diluent was added to heparinized blood obtained from healthy donors (1 mL) at the indicated concentration and incubated for 10 min at 37° C. in a water bath. Following incubations, 125 μL of 40 mg/mL opsonised zymosan was added to each sample, gently vortexed and incubated for 30 min at 37° C. Samples were then centrifuged for 10 min at 960×g at 4° C. Plasma, 350 μL, was removed and added to 1.2 ml of methanol:acetonitrile (1:1) and 50 ng of PGB2 as internal standard. Samples were left overnight at −20° C. for protein denaturation. […] Total 5-LO products quantified represents the sum of LTB4, its trans isomers, 20-COOH— and 20-OH-LTB4 and 5-hydroxyeicosatetraenoic acid."}, "COX-1": {"target": "COX-1 (Homo sapiens (Human), UniProt P23219)", "sequence (P23219 24-599)": "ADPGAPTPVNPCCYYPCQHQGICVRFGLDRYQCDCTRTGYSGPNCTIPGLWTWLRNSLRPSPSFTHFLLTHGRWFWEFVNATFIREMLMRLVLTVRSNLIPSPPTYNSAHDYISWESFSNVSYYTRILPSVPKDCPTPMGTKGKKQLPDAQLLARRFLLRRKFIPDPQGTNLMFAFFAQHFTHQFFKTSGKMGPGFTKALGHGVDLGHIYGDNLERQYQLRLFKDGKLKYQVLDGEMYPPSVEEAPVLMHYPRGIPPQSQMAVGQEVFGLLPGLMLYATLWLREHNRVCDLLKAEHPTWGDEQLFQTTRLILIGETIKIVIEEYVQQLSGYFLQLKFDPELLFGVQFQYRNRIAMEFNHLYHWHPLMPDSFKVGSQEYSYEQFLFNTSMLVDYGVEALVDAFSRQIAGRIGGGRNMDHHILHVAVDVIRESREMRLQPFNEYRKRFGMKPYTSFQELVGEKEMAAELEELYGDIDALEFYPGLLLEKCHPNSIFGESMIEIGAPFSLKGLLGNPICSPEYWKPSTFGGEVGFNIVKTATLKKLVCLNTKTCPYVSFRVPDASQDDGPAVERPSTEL", "assay": "COX-1 inhibitory activity in human platelets", "conditions": "read-out: Percent inhibition at 1 μM"}, "COX-2": {"target": "COX-2 (Homo sapiens (Human), UniProt P35354)", "sequence (P35354 18-604)": "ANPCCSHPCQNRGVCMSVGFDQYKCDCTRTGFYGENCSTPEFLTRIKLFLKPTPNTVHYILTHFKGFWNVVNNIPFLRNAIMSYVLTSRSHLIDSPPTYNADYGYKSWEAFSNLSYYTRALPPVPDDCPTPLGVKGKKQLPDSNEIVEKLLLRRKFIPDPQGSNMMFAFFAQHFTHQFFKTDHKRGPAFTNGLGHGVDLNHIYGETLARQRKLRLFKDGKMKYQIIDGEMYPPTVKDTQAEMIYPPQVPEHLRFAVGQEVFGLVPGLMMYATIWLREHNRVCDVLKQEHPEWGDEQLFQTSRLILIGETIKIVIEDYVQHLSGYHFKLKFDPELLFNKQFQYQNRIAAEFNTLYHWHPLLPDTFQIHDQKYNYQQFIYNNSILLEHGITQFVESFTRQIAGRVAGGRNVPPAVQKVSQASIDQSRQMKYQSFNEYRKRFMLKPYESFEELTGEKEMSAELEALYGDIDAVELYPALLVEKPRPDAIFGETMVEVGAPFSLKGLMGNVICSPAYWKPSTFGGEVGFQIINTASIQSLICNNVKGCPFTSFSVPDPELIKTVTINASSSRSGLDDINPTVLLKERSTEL", "assay": "COX-2 activity, products from LPS-primed human neutrophils", "conditions": "100% no inhibition, 0% complete inhibition"}, "[4]": {"conditions": "read-out: % of control COX-2 activity, n = 1"}, "[5]": {"conditions": "read-out: % of control COX-2 activity, n = 2"}}, "note": "Like-named read-outs stand apart in the source and are kept apart here.", "data": [{"smiles": "O=C(C=Cc1ccc(O)c(O)c1)OCC=Cc1ccccc1", "note": "(stereo in doubt) [Compound 4, (E)-(Z)-3-phenylallyl 3-(3,4-dihydroxyphenyl)acrylate]", "values": [{"measurement": "IC50", "setting": "5-lipoxygenase [1]", "result": 760, "unit": "nM"}]}, {"smiles": "O=C(/C=C/c1ccc(O)c(O)c1)OCCc1ccccc1", "note": "[CAPE, caffeic acid phenethyl ester, reference compound]", "values": [{"measurement": "IC50", "setting": "5-lipoxygenase [1]", "result": "840 to 1100", "unit": "nM"}, {"measurement": "IC50", "setting": "5-lipoxygenase [2]", "result": "650 to 1200", "unit": "nM"}, {"measurement": "IC50", "setting": "5-lipoxygenase [3]", "result": 3400, "unit": "nM"}]}, {"smiles": "O=C(CCc1ccc(O)c(O)c1)OCCCCc1ccccc1", "note": "[Compound 1, 4-phenylbutyl 3-(3,4-dihydroxyphenyl)propanoate]", "values": [{"measurement": "IC50", "setting": "5-lipoxygenase [1]", "result": 870, "unit": "nM"}]}, {"smiles": "O=C(CCc1ccc(O)c(O)c1)OCCCCCc1ccccc1", "note": "[Compound 2, 5-phenylpentyl 3-(3,4-dihydroxyphenyl)propanoate]", "values": [{"measurement": "IC50", "setting": "5-lipoxygenase [1]", "result": 860, "unit": "nM"}, {"measurement": "IC50", "setting": "5-lipoxygenase [3]", "result": 2800, "unit": "nM"}]}, {"smiles": "O=C(CCc1ccc(O)c(O)c1)OCCCCCCc1ccccc1", "note": "[Compound 3, 6-phenylhexyl 3-(3,4-dihydroxyphenyl)propanoate]", "values": [{"measurement": "IC50", "setting": "5-lipoxygenase [1]", "result": 510, "unit": "nM"}, {"measurement": "IC50", "setting": "5-lipoxygenase [3]", "result": 2400, "unit": "nM"}]}, {"smiles": "COc1cc(/C=C/C(=O)OCCCc2ccccc2)cc(OC)c1O", "note": "[Compound 6, (E)-3-phenylpropyl 3-(4-hydroxy-3,5-dimethoxyphenyl)acrylate]", "values": [{"measurement": "IC50", "setting": "5-lipoxygenase [1]", "result": 350, "unit": "nM"}]}, {"smiles": "C=C(C)CCOC(=O)/C=C/c1ccc(O)c(O)c1", "note": "[Compound 17, (E)-3-methylbut-3-en-1-yl 3-(3,4-dihydroxyphenyl)acrylate]", "values": [{"measurement": "IC50", "setting": "5-lipoxygenase [1]", "result": 860, "unit": "nM"}]}, {"smiles": "O=C(/C=C/c1ccc(O)c(O)c1)OCCc1ccc(F)cc1", "note": "[Compound 20, (E)-4-fluorophenethyl 3-(3,4-dihydroxyphenyl)acrylate]", "values": [{"measurement": "inhibition at 1 µM", "setting": "COX-1", "result": 37.2, "unit": "%"}]}, {"smiles": "Cc1ccc(CCOC(=O)/C=C/c2ccc(O)c(O)c2)cc1", "note": "[Compound 21, (E)-4-methylphenethyl 3-(3,4-dihydroxyphenyl)acrylate]", "values": [{"measurement": "inhibition at 1 µM", "setting": "COX-1", "result": 44.6, "unit": "%"}]}, {"smiles": "COc1ccc(CCOC(=O)/C=C/c2ccc(O)c(O)c2)cc1", "note": "[Compound 22, (E)-4-methoxyphenethyl 3-(3,4-dihydroxyphenyl)acrylate]", "values": [{"measurement": "inhibition at 1 µM", "setting": "COX-1", "result": 39.6, "unit": "%"}]}, {"smiles": "O=C(/C=C/c1ccc(O)c(O)c1)OCCCc1ccccc1", "note": "[Compound 25, (E)-3-phenylpropyl 3-(3,4-dihydroxyphenyl)acrylate]", "values": [{"measurement": "IC50", "setting": "5-lipoxygenase [1]", "result": "590 to 820", "unit": "nM"}, {"measurement": "remaining activity at 1 µM", "setting": "COX-2; [4]", "result": 34.9, "unit": "%"}, {"measurement": "remaining activity at 1 µM", "setting": "COX-2; [5]", "result": 81.3, "unit": "%"}, {"measurement": "remaining activity at 1 µM", "setting": "COX-2; read-out: Avg % of control", "result": 58.1, "unit": "%"}]}, {"smiles": "O=C(/C=C/c1ccc(O)c(O)c1)OCC(c1ccccc1)c1ccccc1", "note": "[Compound 27, (E)-2,2-diphenylethyl 3-(3,4-dihydroxyphenyl)acrylate]", "values": [{"measurement": "IC50", "setting": "5-lipoxygenase [1]", "result": 720, "unit": "nM"}]}, {"smiles": "O=C(/C=C/c1ccc(O)c(O)c1)OC/C=C/c1ccccc1", "note": "[Compound 31, (E)-cinnamyl 3-(3,4-dihydroxyphenyl)acrylate]", "values": [{"measurement": "IC50", "setting": "5-lipoxygenase [1]", "result": 1030, "unit": "nM"}]}, {"smiles": "O=C(CCc1ccc(O)c(O)c1)OCCc1ccccc1", "note": "[Compound 32, phenethyl 3-(3,4-dihydroxyphenyl)propanoate]", "values": [{"measurement": "IC50", "setting": "5-lipoxygenase [1]", "result": 1000, "unit": "nM"}, {"measurement": "inhibition at 1 µM", "setting": "COX-1", "result": 42, "unit": "%"}, {"measurement": "remaining activity at 1 µM", "setting": "COX-2; [4]", "result": 34.3, "unit": "%"}, {"measurement": "remaining activity at 1 µM", "setting": "COX-2; [5]", "result": 69, "unit": "%"}, {"measurement": "remaining activity at 1 µM", "setting": "COX-2; read-out: Avg % of control", "result": 51.6, "unit": "%"}]}, {"smiles": "O=C(CCc1ccc(O)c(O)c1)OCCCc1ccccc1", "note": "[Compound 33, 3-phenylpropyl 3-(3,4-dihydroxyphenyl)propanoate]", "values": [{"measurement": "IC50", "setting": "5-lipoxygenase [1]", "result": 890, "unit": "nM"}, {"measurement": "remaining activity at 1 µM", "setting": "COX-2; [4]", "result": 7.6, "unit": "%"}, {"measurement": "remaining activity at 1 µM", "setting": "COX-2; [5]", "result": 45.3, "unit": "%"}, {"measurement": "remaining activity at 1 µM", "setting": "COX-2; read-out: Avg % of control", "result": 26.4, "unit": "%"}]}, {"smiles": "O=C(Cc1ccc(O)c(O)c1)OCCc1ccccc1", "note": "[Compound 34, phenethyl 2-(3,4-dihydroxyphenyl)acetate]", "values": [{"measurement": "inhibition at 1 µM", "setting": "COX-1", "result": "< 20", "unit": "%"}]}, {"smiles": "O=C(Cc1ccc(O)c(O)c1)OCCCc1ccccc1", "note": "[Compound 35, 3-phenylpropyl 2-(3,4-dihydroxyphenyl)acetate]", "values": [{"measurement": "IC50", "setting": "5-lipoxygenase [1]", "result": 790, "unit": "nM"}]}, {"smiles": "O=C(OCCc1ccccc1)c1ccc(O)c(O)c1", "note": "[Compound 36, phenethyl 3,4-dihydroxybenzoate]", "values": [{"measurement": "inhibition at 1 µM", "setting": "COX-1", "result": "< 20", "unit": "%"}]}, {"smiles": "O=C(OCCc1ccccc1)c1cc(O)c(O)c(O)c1", "note": "[Compound 38, phenethyl 3,4,5-trihydroxybenzoate]", "values": [{"measurement": "IC50", "setting": "5-lipoxygenase [1]", "result": 790, "unit": "nM"}, {"measurement": "IC50", "setting": "5-lipoxygenase [3]", "result": 2800, "unit": "nM"}]}, {"smiles": "O=C(/C=C/c1ccc(O)c(O)c1)OCCCCc1ccccc1", "note": "[Compound 39, (E)-4-phenylbutyl 3-(3,4-dihydroxyphenyl)acrylate]", "values": [{"measurement": "IC50", "setting": "5-lipoxygenase [1]", "result": 600, "unit": "nM"}, {"measurement": "remaining activity at 1 µM", "setting": "COX-2; [4]", "result": 62.9, "unit": "%"}, {"measurement": "remaining activity at 1 µM", "setting": "COX-2; [5]", "result": 90.2, "unit": "%"}, {"measurement": "remaining activity at 1 µM", "setting": "COX-2; read-out: Avg % of control", "result": 76.6, "unit": "%"}]}, {"smiles": "O=C(/C=C/c1ccc(O)c(O)c1)OCCCCCc1ccccc1", "note": "[Compound 40, (E)-5-phenylpentyl 3-(3,4-dihydroxyphenyl)acrylate]", "values": [{"measurement": "IC50", "setting": "5-lipoxygenase [1]", "result": 530, "unit": "nM"}, {"measurement": "remaining activity at 1 µM", "setting": "COX-2; [4]", "result": 37.8, "unit": "%"}, {"measurement": "remaining activity at 1 µM", "setting": "COX-2; [5]", "result": 86.4, "unit": "%"}, {"measurement": "remaining activity at 1 µM", "setting": "COX-2; read-out: Avg % of control", "result": 62.1, "unit": "%"}]}, {"smiles": "O=C(/C=C/c1ccc(O)c(O)c1)OCCCCCCc1ccccc1", "note": "[Compound 41, (E)-6-phenylhexyl 3-(3,4-dihydroxyphenyl)acrylate]", "values": [{"measurement": "IC50", "setting": "5-lipoxygenase [1]", "result": 840, "unit": "nM"}]}, {"smiles": "COc1cc(/C=C/C(=O)OCCc2ccccc2)cc(OC)c1O", "note": "[Compound 45, (E)-phenethyl 3-(4-hydroxy-3,5-dimethoxyphenyl)acrylate]", "values": [{"measurement": "IC50", "setting": "5-lipoxygenase [1]", "result": 300, "unit": "nM"}]}, {"smiles": "O=C(/C=C/c1ccc(O)c(O)c1)NCCCc1ccccc1", "note": "[Compound 55, (E)-3-(3,4-dihydroxyphenyl)-N-(3-phenylpropyl)acrylamide]", "values": [{"measurement": "IC50", "setting": "5-lipoxygenase [1]", "result": 1600, "unit": "nM"}, {"measurement": "remaining activity at 1 µM", "setting": "COX-2; [4]", "result": 103, "unit": "%"}, {"measurement": "remaining activity at 1 µM", "setting": "COX-2; [5]", "result": 101, "unit": "%"}, {"measurement": "remaining activity at 1 µM", "setting": "COX-2; read-out: Avg % of control", "result": 102, "unit": "%"}]}, {"smiles": "O=C(/C=C/c1ccc(O)c(O)c1)NCCCCc1ccccc1", "note": "[Compound 56, (E)-3-(3,4-dihydroxyphenyl)-N-(4-phenylbutyl)acrylamide]", "values": [{"measurement": "IC50", "setting": "5-lipoxygenase [1]", "result": 920, "unit": "nM"}]}, {"smiles": "O=C(/C=C/c1ccc(O)c(O)c1)CCc1ccccc1", "note": "[Compound 59, (E)-1-(3,4-dihydroxyphenyl)-5-phenylpent-1-en-3-one]", "values": [{"measurement": "IC50", "setting": "5-lipoxygenase [1]", "result": 840, "unit": "nM"}]}]}
